Like-named read-outs stand apart in the source and are kept apart here. One block for each compound: values may come before it.
What was measured:
[1] = system: CREB-mediated gene transcription; assay: Inhibition of CREB-mediated gene transcription (CRE Renilla luciferase reporter, forskolin stimulated); assay type: cell-based; conditions: 5 h, HEK293T CRE luciferase reporter cells, forskolin 10 uM
Procedure: The compounds were tested for their inhibition of CREB-mediated gene transcription according to the method described in Xie et al. J. Med. Chem. 2015, 58, 5075-5087. Generally, HEK293T cell transfected with luciferase reporter cell lines under CRE control were obtained from commercial sources. The cells were plated into 96-well plates (1-[…] cells/well). The cells were allowed to attach to the bottom of the wells overnight, when compounds of different concentrations were added to the cells. Forskolin (10 uM, LC Laboratories, Woburn, Mass.) was added 30 min after the addition of the compounds. The cells were then incubated at 37° C. for 5 h. The media in the wells were removed and the cells were then lysed in 30 µl of 1×Renilla luciferase lysis buffer (Promega, Madison, Wis.). To measure Renilla luciferase activity, five uL of the lysate was combined with 30 uI of benzyl-coelenterazine (Nanolight, Pinetop, Ariz.) solution in PBS (pH 7.4, 10 ug/mL). The sample protein concentration was determined by Dye Reagent Concentrate (Bio-Rad, Hercules, Calif). The Renilla luciferase activity was normalized to protein content in each well and expressed as relative luciferase unit/ug protein (RLU/ug protein). The IC50 was derived from non-linear regression analysis of the RLU/ug protein-concentration curve.

HL-60 = assay: Cytotoxicity assay (Cell-titer-Glow, 72 hr); assay type: cell-based; conditions: Homo sapiens; leukemia cell line HL-60, 72hr; read-out: IC50 for inhibition of HL-60
Procedure: (§1) The cells were obtained from ATCC, IMDM was obtained from Lonza, and FBS was obtained from Hyclone. Cell-titer-Glow for cytotoxicity was from Promega. Sterile 96-well tissue culture plates were from Corning. Different concentrations of the test compounds were tested in triplicate wells of either 96-well or 384-well tissue culture plates. The screening was repeated two additional times. The cells from ATCC were thawed, washed once with complete media, and cultured in T75 flask in a 37C CO2 incubator. Cell density was maintained between 5×10 5 to 1×10^6 cells/ml. Compounds were individually weighed and dissolved in DMSO to obtain 10 mM solutions of each and stored at −20° C. until used. To select concentrations of the compounds for cytotoxicity, all the compounds were initially tested at 100 μM and 30 μM in a 48 hr cytotoxicity assay. Two microliter of each concentration of the test compounds were transferred into triplicate wells of a 96-well tissue culture plate. Into each well 100 μof the cell suspension was added, the plate was lidded and incubated at 37° C. in a 5% CO2 incubator maintained at 95% humidity After 72hr of incubation, the plate was removed from the incubator, and the cell viability was determined using Cell-titer-glow reagent as per the protocol described in the kit manual. Signals from the plate was measured using Victor-II plate reader. The raw data from the plate reader were exported to Excel. For each concentration of the drug tested the average signal and SD from the triplicate wells, as well as the percent cytotoxicity were calculated. The resulting data were exported to Prism-graph-pad, the % cytotoxicity was plotted against log concentration and the resulting curves were fitted using non-linear dose response fit and the resulting IC50 values were extracted.

A549 = assay: Cytotoxicity assay (Cell-titer-Glow, 72 hr); assay type: cell-based; conditions: Homo sapiens, A549 cells, read-out: IC50 for inhibition of A549
Procedure: as §1

MV-411 = assay: Cytotoxicity assay (Cell-titer-Glow, 72 hr); assay type: cell-based; conditions: Homo sapiens, MV4-11; leukemia cell line MV-411, 72hr; read-out: IC50 for inhibition of MV-411
Procedure: as §1

KG-1 = assay: Cytotoxicity assay (Cell-titer-Glow, 72 hr); assay type: cell-based; conditions: Homo sapiens; leukemia cell line KG-1, 72hr; read-out: IC50 for inhibition of KG-1
Procedure: as §1

MiaPaCa2 = assay: Cytotoxicity assay (Cell-titer-Glow, 72 hr); assay type: cell-based; conditions: Homo sapiens, MIA PaCa-2, MiaPaCa2 cells, read-out: IC50 for inhibition of MiaPaCa2
Procedure: as §1

Hep3B = assay: Cytotoxicity assay (Cell-titer-Glow, 72 hr); assay type: cell-based; conditions: Homo sapiens, Hep3B cells, read-out: IC50 for inhibition of Hep3B
Procedure: as §1

NaLM6 = assay: Cytotoxicity assay (Cell-titer-Glow, 72 hr); assay type: cell-based; conditions: Homo sapiens, NALM-6; leukemia cell line NaLM6, 72hr; read-out: IC50 for inhibition of NaLM6
Procedure: as §1

BT-474 = assay: Cytotoxicity assay (Cell-titer-Glow, 72 hr); assay type: cell-based; conditions: Homo sapiens; breast cancer line BT-474, 72hr; read-out: IC50 for inhibition of BT-474
Procedure: as §1

Hs587T = assay: Cytotoxicity assay (Cell-titer-Glow, 72 hr); assay type: cell-based; conditions: breast cancer line Hs587T, read-out: IC50 for inhibition of Hs587T
Procedure: as §1

MCF-7 = assay: Cytotoxicity assay (Cell-titer-Glow, 72 hr); assay type: cell-based; conditions: Homo sapiens, MCF7; breast cancer line MCF-7, 72hr; read-out: IC50 for inhibition of MCF-7
Procedure: as §1

HL-60 cells = assay: AML xenograft model; assay type: in vivo; conditions: HL-60 xenograft in NSG mice, 2 mg/kg IV daily
Procedure: For AML xenograft mouse experiments, HL-60 cells (2×10^6) expressing firefly luciferase and GFP are injected through the tail vein into 4-6 week old NOD. Cg-Prkdc^acid Il2rg^tmlWjlSzJ (NSG) mice. Mice are then treated with 2 mg/kg SRS-1006 or 10% DMSO, injected intravenously by tail vein daily seven days after AML cell injection, until death or an endpoint is reached (moribundity) in accordance with the animal care institutional guidelines. Leukemia progression in mice at the indicated time points is monitored using an in vivo IVIS 100 bioluminescenceoptical imaging system (Xenogen Corporation). D-Luciferin (Promega) dissolved in sterile phosphate-buffered saline was injected intraperitoneally at a dose of […], 15 minutes before measuring the luminescent signal. General anesthesia is induced with […] and continued during the procedure using a nose cone. Analysis is performed on Living Image In Vivo imaging software (Perkin-Elmer). Bone marrow is aspirated from bone marrow cavities, and GFP+cells is sorted using the FACSCalibur flow cytometer (BD Biosciences).

[2] = Mouse pharmacokinetics, plasma by LC-MS/MS; assay type: in vivo, mice (C57BL/6); conditions: female C57BL/6 mice
Procedure: The compound was formulated in an aqueous solution containing 5% Tween-80, 10% DMSO. Female mice (C57BL/6) were given a single dose of the formulation at 5 mg/kg (IV), 10 mg/kg (IP) and 20 mg/kg (orally). At different time points (0.083, 0.25, 0.5, 1, 2, 4, 8, 24 h) post drug administration, blood was collected and the plasma was prepared. The samples were stored at −80° C. until analysis. The drug concentration in the plasma was analyzed by LC-MS/MS.

[3] = in vivo; cited from earlier work

SMILES: NCCCOc1cc2ccccc2cc1C(=O)NCCOc1cc2ccccc2cc1C(=O)Nc1ccccc1 [SRS-1001]
IC50 ([1]; Homo sapiens, HEK-293T): 1.26 µM

SMILES: NCCCOc1cc2ccccc2cc1C(=O)NCCOc1cc2ccccc2cc1C(=O)Nc1ccc(Cl)cc1 [SRS-1002]
IC50 ([1]; Homo sapiens, HEK-293T): 1.55 µM

SMILES: N#Cc1ccc(NC(=O)c2cc3ccccc3cc2OCCNC(=O)c2cc3ccccc3cc2OCCCN)cc1 [SRS-1004]
IC50 ([1]; Homo sapiens, HEK-293T): 1.2 µM

SMILES: NCCCOc1cc2ccccc2cc1C(=O)NCCOc1cc2ccccc2cc1C(=O)Nc1ccc(Cl)cc1Cl [SRS-1005]
IC50 ([1]; Homo sapiens, HEK-293T): 1.55 µM

SMILES: O=C(Nc1ccc(Cl)cc1)c1cc2ccccc2cc1O [napththol AS-E, naphthol AS-E]
bioavailability [3]: low

Continued, in another order:

IC50 ([1]; Homo sapiens, HEK-293T): 0.41 µM
SMILES: NCCCOc1cc2ccccc2cc1C(=O)NCCOc1cc2ccccc2cc1C(=O)Nc1ccc(F)cc1 [SRS-1003]

IC50 ([1]; Homo sapiens, HEK-293T): 0.18 µM
bioavailability ([2]; single dose 5 mg/kg IV, read-out: IV bioavailability): 100%
bioavailability ([2]; single dose 10 mg/kg IP, read-out: IP bioavailability): 100%
bioavailability ([2]; po, single dose 20 mg/kg orally, read-out: oral bioavailability): 67%
SMILES: Cl.NCCCOc1cc2ccccc2cc1C(=O)NCCOc1cc2ccccc2cc1C(=O)Nc1ccccc1F [SRS-1006]
IC50 (HL-60): 0.65 µM
IC50 (A549): 1.49 µM
IC50 (MV-411): 0.99 µM
IC50 (KG-1): 3.39 µM
IC50 (MiaPaCa2): 1.7 µM
IC50 (Hep3B): 1.46 µM
IC50 (NaLM6): 0.97 µM
IC50 (BT-474): 5.21 µM
IC50 (Hs587T): 3.69 µM
IC50 (MCF-7): 1.47 µM
median survival in Kaplan-Meier analysis (HL-60 cells): significantly prolonged
disease burden by bioluminescence imaging (HL-60 cells; compared to control): less disease burden

IC50 [1]: 0.41 µM
IC50 ([1]; Homo sapiens, HEK-293T): 0.45 µM
SMILES: NCCCOc1cc2ccccc2cc1C(=O)NCCOc1cc2ccccc2cc1C(=O)Nc1c(F)cccc1F [SRS-1007]

Reference: US20230416191A1, “Compounds, Compositions and Methods for the Treatment of CREB-dependent Diseases” (Sereno Sciences, Inc., priority 2022, published 2023)
